From patent publication US20230183292A1, “IMMUNOMODULATORS” (priority 2020, published 2023)
Where two headings read alike, the source gives them in different places. Starred links: 1 amine or outer side, 2 acyl side, 3 side chain; linkers in the order of their positions; H or OH if unused. Positions of bridges follow the written chain, without caps; N, C: chain ends. Non-standard residues stand in square brackets, D forms with d. Residues, ends and D or L forms follow the SMILES beside them. *: point of attachment. Chenodeoxycholyl = C[C@H](CCC(=O)*)[C@H]1CC[C@H]2[C@@H]3[C@H](O)C[C@@H]4C[C@H](O)CC[C@]4(C)[C@H]3CC[C@]12C; Cholyl = C[C@H](CCC(=O)*)[C@H]1CC[C@H]2[C@@H]3[C@H](O)C[C@@H]4C[C@H](O)CC[C@]4(C)[C@H]3C[C@H](O)[C@]12C; X14 = C[C@H](CCC(=O)*)[C@H]1CC[C@H]2[C@H]3C(C[C@H](O)[C@]12C)[C@@]1(C)CC[C@@H](O)C[C@H]1C[C@H]3O; X18 = CCN(CC)CCCNC(=O)Cn1cc(C[C@H](N[*:1])C(=O)[*:2])c2ccccc21; X13 = CC(C)CNC(=O)Cn1cc(C[C@H](N[*:1])C(=O)[*:2])c2ccccc21; X31 = CCOC(=O)Cn1cc(C[C@H](N[*:1])C(=O)[*:2])c2ccccc21; Hyp = O=C(O)[C@@H]1C[C@@H](O)CN1; NMeNle = CCCC[C@H](NC)C(=O)O; NMeA = CN[C@@H](C)C(=O)O; Dab = NCC[C@H](N)C(=O)O; Dap = NC[C@H](N)C(=O)O

Target: T1, PD-1/PD-L1 (Homo sapiens, UniProt Q9NZQ7)
T1 construct: TVMV protease site (C); made in house; host or cells: HEK293T cells
Experiment: PD-1/PD-L1 Homogenous Time-Resolved Fluorescence (HTRF) binding assay
Conditions: PD-1-Ig 20 nM
From the text: The ability of the compounds of formula (I) to bind to PD-L1 was investigated using a PD-1/PD-L1 Homogenous Time-Resolved Fluorescence (HTRF) binding assay.
The interaction of PD-1 and PD-L1 can be assessed using soluble, purified preparations of the extracellular domains of the two proteins. The PD-1 and PD-L1 protein extracellular domains were expressed as fusion proteins with detection tags, for PD-1, the tag was the Fc portion of Immunoglobulin (PD-1-Ig) and for PD-L1 it was the 6 histidine motif (PD-L1-His). All binding studies were performed in an HTRF assay buffer consisting of dPBS supplemented with 0.1% […] bovine serum albumin and 0.05% (v/v) Tween-20. For the h/PD-L1-His binding assay, inhibitors were pre-incubated with PD-L1-His (10 nM final) for 15 m in 4 μl of assay buffer, followed by addition of PD-1-Ig (20 nM final) in 1 μl of assay buffer and further incubation for 15 m. HTRF detection was achieved using europium crypate-labeled anti-Ig (1 nM final) and allophycocyanin (APC) labeled anti-His (20 nM final). Antibodies were diluted in HTRF detection buffer and 5 μl was dispensed on top of the binding reaction. The reaction mixture was allowed to equilibrate for 30 minutes and the resulting signal (665 nm/620 nm ratio) was obtained using an EnVision fluorometer. Additional binding assays were established between the human proteins PD-1-Ig/PD-L2-His (20 & 5 nM, respectively) and CD80-His/PD-L1-Ig (100 & 10 nM, respectively).
Recombinant Proteins: Human PD-1 (25-167) with a C-terminal human Fc domain of immunoglobulin G (Ig) epitope tag [hPD-1 (25-167)-3S-IG] and human PD-L1 (18-239) with a C-terminal His epitope tag [hPD-L1(18-239)-TVMV-His] were expressed in HEK293T cells and purified sequentially by ProteinA affinity chromatography and size exclusion chromatography. Human PD-L2-His and CD80-His was obtained through commercial sources.
Table 1 lists the IC50 values for representative examples of this disclosure measured in the PD-1/PD-L1 Homogenous Time-Resolved Fluorescence (HTRF) binding assay.

[1] = PD-L1-His 10 nM, read-out: HTRF IC50

T1 sequence (Q9NZQ7 18-239): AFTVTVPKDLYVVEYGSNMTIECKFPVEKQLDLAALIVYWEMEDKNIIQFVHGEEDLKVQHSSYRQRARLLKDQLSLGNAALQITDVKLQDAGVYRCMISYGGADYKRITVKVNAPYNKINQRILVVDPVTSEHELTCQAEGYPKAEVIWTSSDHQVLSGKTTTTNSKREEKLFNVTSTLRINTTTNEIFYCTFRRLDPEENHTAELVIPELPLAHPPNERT

CCCC[C@H]1C(=O)N(C)[C@@H](CCCC)C(=O)N[C@@H](CC(C)C)C(=O)N[C@H](C(=O)NCC(N)=O)CSCC(=O)N[C@@H](Cc2ccc(O)cc2)C(=O)N(C)[C@@H](C)C(=O)N[C@@H](CC(N)=O)C(=O)N2CCC[C@H]2C(=O)N[C@@H](CNC(=O)CC[C@@H](C)[C@H]2CC[C@H]3[C@@H]4[C@H](O)C[C@@H]5C[C@H](O)CC[C@]5(C)[C@H]4CC[C@]23C)C(=O)N[C@@H](CC(C)C)C(=O)N2C[C@H](O)C[C@H]2C(=O)N[C@@H](Cc2c[nH]c3ccccc23)C(=O)N[C@@H](CCNC(=O)CC[C@@H](C)[C@H]2CC[C@H]3[C@@H]4[C@H](O)C[C@@H]5C[C@H](O)CC[C@]5(C)[C@H]4CC[C@]23C)C(=O)N[C@@H](Cc2cn(CC(=O)OCC)c3ccccc23)C(=O)N1C [Example 2001] ({CH2CO}-Y[NMeA]NP[Dap](Chenodeoxycholyl)L[Hyp]W[Dab](Chenodeoxycholyl)[X31][NMeNle][NMeNle]LCG-NH2; thioether N-14)
IC50 [1]: 220 nM

CCCC[C@H]1C(=O)N(C)[C@@H](CCCC)C(=O)N[C@@H](CC(C)C)C(=O)N[C@H](C(=O)NCC(N)=O)CSCC(=O)N[C@@H](Cc2ccc(O)cc2)C(=O)N(C)[C@@H](C)C(=O)N[C@@H](CC(N)=O)C(=O)N2CCC[C@H]2C(=O)N[C@@H](CNC(=O)CC[C@@H](C)[C@H]2CC[C@H]3[C@@H]4[C@H](O)C[C@@H]5C[C@H](O)CC[C@]5(C)[C@H]4C[C@H](O)[C@]23C)C(=O)N[C@@H](CC(C)C)C(=O)N2C[C@H](O)C[C@H]2C(=O)N[C@@H](Cc2c[nH]c3ccccc23)C(=O)N[C@@H](CCNC(=O)CC[C@@H](C)[C@H]2CC[C@H]3[C@H]4C(C[C@H](O)[C@]23C)[C@@]2(C)CC[C@@H](O)C[C@H]2C[C@H]4O)C(=O)N[C@@H](Cc2cn(CC(=O)NCC(C)C)c3ccccc23)C(=O)N1C (some centres unmarked) [Example 2002] ({CH2CO}-Y[NMeA]NP[Dap](Cholyl)L[Hyp]W[Dab](X14)[X13][NMeNle][NMeNle]LCG-NH2; thioether N-14)
IC50 [1]: 3300 nM

CCCC[C@H]1C(=O)N(C)[C@@H](CCCC)C(=O)N[C@@H](CC(C)C)C(=O)N[C@H](C(=O)NCC(N)=O)CSCC(=O)N[C@@H](Cc2ccc(O)cc2)C(=O)N(C)[C@@H](C)C(=O)N[C@@H](CC(N)=O)C(=O)N2CCC[C@H]2CN[C@@H](CNC(=O)CC[C@@H](C)[C@H]2CC[C@H]3[C@@H]4[C@H](O)C[C@@H]5C[C@H](O)CC[C@]5(C)[C@H]4C[C@H](O)[C@]23C)C(=O)N[C@@H](CC(C)C)C(=O)N2C[C@H](O)C[C@H]2C(=O)N[C@@H](Cc2c[nH]c3ccccc23)C(=O)N[C@@H](CCNC(=O)CC[C@@H](C)[C@H]2CC[C@H]3[C@@H]4[C@H](O)C[C@@H]5C[C@H](O)CC[C@]5(C)[C@H]4C[C@H](O)[C@]23C)C(=O)N[C@@H](Cc2cn(CC(=O)OC3CC3)c3ccccc23)C(=O)N1C [Example 2003]
IC50 [1]: 970 nM

CCCC[C@H]1C(=O)N(C)[C@@H](CCCC)C(=O)N[C@@H](CC(C)C)C(=O)N[C@H](C(=O)NCC(N)=O)CSCC(=O)N[C@@H](Cc2ccc(O)cc2)C(=O)N(C)[C@@H](C)C(=O)N[C@@H](CC(N)=O)C(=O)N2CCC[C@H]2CN[C@@H](CNC(=O)CC[C@@H](C)[C@H]2CC[C@H]3[C@@H]4[C@H](O)C[C@@H]5C[C@H](O)CC[C@]5(C)[C@H]4C[C@H](O)[C@]23C)C(=O)N[C@@H](CC(C)C)C(=O)N2C[C@H](O)C[C@H]2C(=O)N[C@@H](Cc2c[nH]c3ccccc23)C(=O)N[C@@H](CCNC(=O)CC[C@@H](C)[C@H]2CC[C@H]3[C@@H]4[C@H](O)C[C@@H]5C[C@H](O)CC[C@]5(C)[C@H]4C[C@H](O)[C@]23C)C(=O)N[C@@H](Cc2cn(CC(=O)OCCCO)c3ccccc23)C(=O)N1C [Example 2004]
IC50 [1]: 350 nM

CCCC[C@H]1C(=O)N(C)[C@@H](CCCC)C(=O)N[C@@H](CC(C)C)C(=O)N[C@H](C(=O)NCC(N)=O)CSCC(=O)N[C@@H](Cc2ccc(O)cc2)C(=O)N(C)[C@@H](C)C(=O)N[C@@H](CC(N)=O)C(=O)N2CCC[C@H]2CN[C@@H](CNC(=O)CC[C@@H](C)[C@H]2CC[C@H]3[C@@H]4[C@H](O)C[C@@H]5C[C@H](O)CC[C@]5(C)[C@H]4C[C@H](O)[C@]23C)C(=O)N[C@@H](CC(C)C)C(=O)N2C[C@H](O)C[C@H]2C(=O)N[C@@H](Cc2c[nH]c3ccccc23)C(=O)N[C@@H](CCNC(=O)CC[C@@H](C)[C@H]2CC[C@H]3[C@@H]4[C@H](O)C[C@@H]5C[C@H](O)CC[C@]5(C)[C@H]4C[C@H](O)[C@]23C)C(=O)N[C@@H](Cc2cn(CC(=O)OCCO)c3ccccc23)C(=O)N1C [Example 2005]
IC50 [1]: 210 nM

CCCC[C@H]1C(=O)N(C)[C@@H](CCCC)C(=O)N[C@@H](CC(C)C)C(=O)N[C@H](C(=O)NCC(N)=O)CSCC(=O)N[C@@H](Cc2ccc(O)cc2)C(=O)N(C)[C@@H](C)C(=O)N[C@@H](CC(N)=O)C(=O)N2CCC[C@H]2CN[C@@H](CNC(=O)CC[C@@H](C)[C@H]2CC[C@H]3[C@@H]4[C@H](O)C[C@@H]5C[C@H](O)CC[C@]5(C)[C@H]4C[C@H](O)[C@]23C)C(=O)N[C@@H](CC(C)C)C(=O)N2C[C@H](O)C[C@H]2C(=O)N[C@@H](Cc2c[nH]c3ccccc23)C(=O)N[C@@H](CCNC(=O)CC[C@@H](C)[C@H]2CC[C@H]3[C@@H]4[C@H](O)C[C@@H]5C[C@H](O)CC[C@]5(C)[C@H]4C[C@H](O)[C@]23C)C(=O)N[C@@H](Cc2cn(CC(=O)OCCOCCO)c3ccccc23)C(=O)N1C [Example 2006]
IC50 [1]: 200 nM

CCCC[C@H]1C(=O)N(C)[C@@H](CCCC)C(=O)N[C@@H](CC(C)C)C(=O)N[C@H](C(=O)NCC(N)=O)CSCC(=O)N[C@@H](Cc2ccc(O)cc2)C(=O)N(C)[C@@H](C)C(=O)N[C@@H](CC(N)=O)C(=O)N2CCC[C@H]2CN[C@@H](CNC(=O)CC[C@@H](C)[C@H]2CC[C@H]3[C@@H]4[C@H](O)C[C@@H]5C[C@H](O)CC[C@]5(C)[C@H]4C[C@H](O)[C@]23C)C(=O)N[C@@H](CC(C)C)C(=O)N2C[C@H](O)C[C@H]2C(=O)N[C@@H](Cc2c[nH]c3ccccc23)C(=O)N[C@@H](CCNC(=O)CC[C@@H](C)[C@H]2CC[C@H]3[C@@H]4[C@H](O)C[C@@H]5C[C@H](O)CC[C@]5(C)[C@H]4C[C@H](O)[C@]23C)C(=O)N[C@@H](Cc2cn(CC(=O)Oc3ccccc3)c3ccccc23)C(=O)N1C [Example 2007]
IC50 (HTRF IC50, PD-L1-His 10 nM): 720 nM

CCCC[C@H]1C(=O)N(C)[C@@H](CCCC)C(=O)N[C@@H](CC(C)C)C(=O)N[C@H](C(=O)NCC(N)=O)CSCC(=O)N[C@@H](Cc2ccc(O)cc2)C(=O)N(C)[C@@H](C)C(=O)N[C@@H](CC(N)=O)C(=O)N2CCC[C@H]2C(=O)N[C@@H](CNC(=O)CC[C@@H](C)[C@H]2CC[C@H]3[C@@H]4[C@H](O)C[C@@H]5C[C@H](O)CC[C@]5(C)[C@H]4C[C@H](O)[C@]23C)C(=O)N[C@@H](CC(C)C)C(=O)N2C[C@H](O)C[C@H]2C(=O)N[C@@H](Cc2c[nH]c3ccccc23)C(=O)N[C@@H](CCNC(=O)CC[C@@H](C)[C@H]2CC[C@H]3[C@@H]4[C@H](O)C[C@@H]5C[C@H](O)CC[C@]5(C)[C@H]4C[C@H](O)[C@]23C)C(=O)N[C@@H](Cc2cn(CC(=O)NCCCN(CC)CC)c3ccccc23)C(=O)N1C [Example 2008] ({CH2CO}-Y[NMeA]NP[Dap](Cholyl)L[Hyp]W[Dab](Cholyl)[X18][NMeNle][NMeNle]LCG-NH2; thioether N-14)
IC50 [1]: 95 nM
